Results: US6472401B2, “Methods for the treatment of vascular disorders” (Schering Corporation, priority 1999, dated 2002)
Like-named read-outs stand apart in the source and are kept apart here.

Assays:
[1] = Administration of antihistamine to patients suffering from clinical depression (Example 2); conditions: for recurrence of symptoms of depression: patients known to have suffered from depression, not currently experiencing symptoms, administered indefinitely; for reduction of symptoms of depression: patients suffering from depression; for recurrence or worsening of symptoms of depression: responders continue treatment at their respective dosage level
Experimental: Patients suffering from clinical depression are administered a non-sedating antihistamine (loratadine) or a low-sedating antihistamine (cetirizine) to relieve the symptoms of depression. Six treatment groups are contemplated.

[2] = for recurrence of symptoms of depression: administered indefinitely
[3] = patients known to have suffered from depression and subject to allergic rhinitis, no current symptoms of either
[4] = patients known to have suffered from depression and suffering from allergic rhinitis, no current depression symptoms
[5] = patients suffering from depression and allergic rhinitis
[6] = patients suffering from depression, subject to allergic rhinitis but not currently suffering from it
[7] = responders subject to allergic rhinitis but without current rhinitis symptoms continue treatment at their respective dosage level
[8] = responders suffering from allergic rhinitis continue treatment at their respective dosage level

SMILES	recurrence of symptoms of depression [1]	reduction of symptoms of depression [1]	recurrence or worsening of symptoms of depression [1]	recurrence of symptoms of depression [2, 3]	recurrence of symptoms of depression [2, 4]	reduction of symptoms of depression [2, 5]	reduction of symptoms of depression [2, 6]	recurrence or worsening of symptoms of depression [2, 7]	recurrence or worsening of symptoms of depression [2, 8]
O=C(O)COCCN1CCN(C(c2ccccc2)c2ccc(Cl)cc2)CC1 (stereo not drawn) [cetirizine]	a significant number of patients do not experience recurrence of symptoms of depression	A significant number of patients experience a reduction of their symptoms of depression	a significant number of patients do not experience recurrence or worsening of symptoms of depression	a significant number of patients do not experience recurrence of symptoms of depression	a significant number of patients do not experience recurrence of symptoms of depression	A significant number of patients experience a reduction of their symptoms of depression	A significant number of patients experience a reduction of their symptoms of depression	a significant number of patients do not experience recurrence or worsening of symptoms of depression	a significant number of patients do not experience recurrence or worsening of symptoms of depression
CCOC(=O)N1CCC(=C2c3ccc(Cl)cc3CCc3cccnc32)CC1 [loratadine]	a significant number of patients do not experience recurrence of symptoms of depression	A significant number of patients experience a reduction of their symptoms of depression	a significant number of patients do not experience recurrence or worsening of symptoms of depression	a significant number of patients do not experience recurrence of symptoms of depression	a significant number of patients do not experience recurrence of symptoms of depression	A significant number of patients experience a reduction of their symptoms of depression	A significant number of patients experience a reduction of their symptoms of depression	a significant number of patients do not experience recurrence or worsening of symptoms of depression	a significant number of patients do not experience recurrence or worsening of symptoms of depression
